What was measured:
[1] = molecular target: T1, human cloned 5-HT1A receptors (Homo sapiens, UniProt P08908); test: [35S]GTPγS binding, membranes of HeLa cells transfected with human cloned 5-HT1A receptors; format: biochemical; details: 5-HT maximal stimulation taken as 100%
T1 construct: expressed in transfected cells
T1 sequence (P08908 1-422): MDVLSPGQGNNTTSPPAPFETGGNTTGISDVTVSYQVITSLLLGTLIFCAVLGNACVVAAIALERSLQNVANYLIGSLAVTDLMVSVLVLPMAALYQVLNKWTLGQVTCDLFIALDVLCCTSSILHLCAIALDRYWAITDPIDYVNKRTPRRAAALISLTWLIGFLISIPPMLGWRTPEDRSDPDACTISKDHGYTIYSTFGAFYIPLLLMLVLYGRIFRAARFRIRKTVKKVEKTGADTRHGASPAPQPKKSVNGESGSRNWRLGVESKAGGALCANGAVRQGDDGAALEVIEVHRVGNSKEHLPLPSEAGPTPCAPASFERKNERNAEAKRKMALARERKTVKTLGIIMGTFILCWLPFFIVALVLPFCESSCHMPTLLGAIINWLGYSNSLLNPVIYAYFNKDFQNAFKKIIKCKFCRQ
Protocol: A genomic clone coding for the human 5HT1A-serotonergic receptor was stably transfected in a human cell line (HeLa). HeLa cells were grown as monolayers in Dulbecco's modified Eagle medium (DMEM), containing 10% fetal bovine serum, gentamycin (0.1 mg/ml) and 5% carbon dioxide, at 37° C. The cells were detached from the growth flask at 95% confluence by a cell scraper and were lysed in cold 5 mM Tris and 5 mM EDTA buffer (pH 7.4). The homogenates were centrifuged at 40000×g×20 minutes and the pellets were resuspended in a small volume of cold 5 mM Tris and 5 mM EDTA buffer (pH 7.4) and immediately frozen and stored at −70° C. until use.
[^35S]GTPγS binding: on the experimental day, cell membranes from HeLa cells transfected with human cloned 5-HT1A receptors were resuspended in buffer pH 7.4 containing 20 mM HEPES, 3 mM MgCl2 and 120 mM NaCl (Stanton, J. A.; Beer, M. S. Eur. J. Pharmacol. 320, 267–275, 1997). The membranes were incubated with 10 μM GDP and decreasing concentrations of test drugs (from 100 μM to 0.1 nM) or decreasing concentrations of 5-HT (from 100 μM to 0.1 nM, reference curve) for 20 min at 30° C. in a final volume of about 0.25 ml. [^35S]GTPγS ([…] in 10 μl) was added to samples and incubated for a further 30 min at 30° C. Non-specific binding was determined in the presence of 10 μM GTPγS. The incubation was stopped by addition of ice-cold HEPES buffer and rapid filtration on Unifilter GF/C filters, using a Filtermate cell harvester (Packard). The filters were washed four times with total 1.2 ml of same buffer. Radioactivity was counted by liquid scintillation spectrometry with efficiency >90% (TopCount Packard). Stimulation of [^35S]GTPγS binding induced by the compounds tested was espressed as % increase in binding above basal value, being the maximal stimulation observed with 5-HT taken as 100%. The concentration-response curve of the agonistic activity was analyzed by non linear fitting program (De Lean et al., Am. J. Physiol. 235, E97-E102, 1978).
A stimulation of [^35S]GTPγS binding represented the functional correlate of the binding of an agonist compound at the 5-HT1A receptors. Stimulation induced by the endogenous ligand 5-HT was considered the maximal stimulation attainable.

[2] = tested on: rhythmic bladder-voiding contractions in anaesthetised rats; test: Rhythmic bladder-voiding contractions induced by bladder filling in anaesthetised rats; format: in vivo, rat; details: for ED50: Rattus norvegicus, read-out: ED50 (frequency) (extrapolated dose inducing a reduction of the number of contractions > 30% in 50% of treated rats); for ED50 / ED10 min (extrapolated dose inducing 10 minutes of disappearance of the contractions): intravenous administration, anaesthetised rats; for time of disappearance of bladder contractions: after administration of 0.3 mg/kg
Protocol: Female Sprague-Dawley rats weighing 225–275 g (Crl: CD® (SD) IGS BR, Charles River Italia) were used. The animals were housed with free access to food and water and maintained on a forced 12-hour alternating light-dark cycle at 22–24° C. for at least one week, except during the experiment. The activity on rhythmic bladder voiding contractions was evaluated according to the method of Dray (Dray J., Pharmacol. Methods, 13:157, 1985), with some modifications as in Guarneri (Guarneri, Pharmacol. Res. 27:173, 1993). Briefly, the rats were anaesthetised by subcutaneous injection of 1.25 g/kg (5 ml/kg) urethane, after which the urinary bladder was catheterised via the urethra using PE 50 polyethylene tubing filled with physiological saline. The catheter was tied in place with a ligature around the external urethral orifice and was connected to conventional pressure transducers (Statham P23 ID/P23 XL). […] The bladder was then filled via the recording catheter by incremental volumes of warm (37° C.) saline until reflex bladder-voiding contractions occurred (usually 0.81.5 ml). For intravenous injection of bioactive compounds, PE 50 polyethylene tubing filled with physiological saline was inserted into the jugular vein.
From the cystometrogram, the number of contractions recorded 15 minutes before (basal values) and after treatment, as well as the mean amplitude of these contractions (mean height of the peaks in mmHg), was evaluated.
Since most compounds produced an effect that was relatively rapid in onset and led to a complete cessation of bladder contractions, bioactivity was conveniently estimated by measuring the duration of bladder quiescence (i.e., the length of the time during which no contractions occurred). The number of tested animals showing a reduction in the number of contractions higher than 30% of that observed in the basal period was recorded too.
The extrapolated doses which induced a reduction in the number of contractions greater than 30% in 50% of the treated rats (ED50) were evaluated by the method of Bliss (Bliss C. I., Quart J. Pharm. Pharmacol. 11, 192–216, 1938).

Functional effect ([35S]GTPγS binding) [1]	SMILES	ED50 [2]	ED10 min (extrapolated dose inducing 10 minutes of disappearance of the contractions) [2]	time of disappearance of bladder contractions [2]	extrapolated dose inducing 10 minutes of disappearance of the contractions, fold lower than Ex. 5 ([2]; compared with Ex. 5)
Neutral antagonist	COc1ccccc1N1CCN(CC[C@@H](c2ccccc2F)[C@H](O)C2CCCCC2)CC1 (racemic) [Ex. 1, 1-[(SR-RS)-4-cyclohexyl-4-hydroxy-3-(2-fluorophenyl)-butyl]-4-(2-methoxyphenyl)-piperazine]	0.03 mg/kg	0.198 mg/kg	–	–
Neutral antagonist	COc1ccccc1N1CCN(CC[C@H](c2ccccc2)[C@@H](O)C2CCCCC2)CC1 (racemic) [Ex. 5, 1-[(RS,SR)-4-Cyclohexyl-4-hydroxy-3-phenyl-butyl]-4-(2-methoxyphenyl)-piperazine, reference compound]	0.018 mg/kg	0.066 mg/kg	14 min	–
Neutral antagonist	COc1ccccc1N1CCN(CC[C@H](c2ccccc2F)[C@@H](O)C2CCCCC2)CC1 [Ex. 1Y, 1-[(3R,4S)-4-cyclohexyl-4-hydroxy-3-(2-fluorophenyl)-butyl]-4-(2-methoxyphenyl)-piperazine]	0.015 mg/kg	0.023 mg/kg	24 min	at least 2 fold
Neutral antagonist	COc1ccccc1N1CCN(CC[C@H](c2ccccc2F)[C@H](O)C2CCCCC2)CC1 [Ex. 2X, 1-[(3R,4R)-4-cyclohexyl-4-hydroxy-3-(2-fluorophenyl)-butyl]-4-(2-methoxyphenyl)-piperazine]	–	–	–	–
